Measurements reported in ChEMBL document CHEMBL1140470, “Synthesis and in vitro evaluation of a selective antagonist and the corresponding radioligand for the prostaglandin D2 receptor CRTH2” (Bioorg Med Chem Lett, 2007).

Tests used:
[1] = molecular target: T1, Prostaglandin D2 receptor 2 (Homo sapiens, UniProt Q9Y5Y4); assay: Displacement of [3H]PGD2 from human CRTH2 receptor
T1 sequence (Q9Y5Y4 whole entry): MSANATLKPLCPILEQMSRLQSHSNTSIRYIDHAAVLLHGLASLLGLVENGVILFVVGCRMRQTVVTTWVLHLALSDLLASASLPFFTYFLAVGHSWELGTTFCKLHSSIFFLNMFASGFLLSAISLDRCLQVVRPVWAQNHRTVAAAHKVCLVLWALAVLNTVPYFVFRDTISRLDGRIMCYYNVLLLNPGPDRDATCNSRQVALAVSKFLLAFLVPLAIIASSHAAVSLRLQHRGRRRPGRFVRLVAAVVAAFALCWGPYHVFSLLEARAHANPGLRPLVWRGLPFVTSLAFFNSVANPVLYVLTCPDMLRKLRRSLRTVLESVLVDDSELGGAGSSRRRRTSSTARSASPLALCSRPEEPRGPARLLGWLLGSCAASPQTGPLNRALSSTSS

[2] = molecular target: T1, Prostaglandin D2 receptor 2; assay: Antagonist activity at human CRTH2 receptor assessed as inhibition of PGD2-induced signaling by inositol-phosphate assay; type: functional
[3] = molecular target: T2, Prostaglandin D2 receptor 2 (Homo sapiens) (UniProt Q9Y5Y4); assay: (§1) Displacement of [3H]TRQ11238 from human CRTH2 receptor expressed in HEK293 cells; type: cell-based; details: tested as the 3H-labelled form
T2 sequence (whole entry): T1 sequence (Q9Y5Y4 whole entry)

CRTH2 (Homo sapiens) = assay: Selectivity for CRTH2 over DP and TP receptors
[4] = molecular target: T1, Prostaglandin D2 receptor 2; assay: as §1; type: cell-based

| Ki [1] [nM] | IC50 [2] [nM] | Bmax [3] [fmol/mg] | Selectivity ratio (CRTH2 (Homo sapiens)) | Kd [4] [nM] | SMILES |
| --- | --- | --- | --- | --- | --- |
| 0.631 | 3.98 | 2790 | > 1000 | – | O=C(O)Cn1cc(CCN(Cc2ccccc2)S(=O)(=O)c2ccc(F)cc2)c2ccccc21 |
| – | – | – | – | 1 | [3H]c1cc([3H])cc(CN(CCc2cn(CC(=O)O)c3ccccc23)S(=O)(=O)c2ccc(F)cc2)c1 |
